Test results as given in patent publication US11401264B2, “Heterocyclic compound” (Orizuru Therapeutics, Inc., priority 2018, dated 2022).

Test system: cardiomyocytes from double knock-in human iPS cell lines (mCherry at TNNI3 locus)
Assay: Experimental Example 1: mCherry (TNNI3 reporter) immunostaining measured by high contents screening
Format: cell-based
Design: key to average fluorescent intensity (at 30 μM): —: The symbol in Table 2 means that the average fluorescent intensity cannot be evaluated due to cell decrease
Conditions: read on 8th day, Alexa 647 anti-mCherry, control well 797; for average fluorescent intensity (at 1 μM): test compound 1 μM added on 3rd and 6th culture days; for average fluorescent intensity (at 30 μM): test compound 30 μM added on 3rd and 6th culture days
Method: For detection of cardiomyocyte maturation, double knock-in human iPS cell lines, in which reporter protein sequences, EmGFP (Sequence Number 1) and mCherry (Sequence Number 2) were inserted into gene loci for TNNI1 and TNNI3, respectively, were prepared (the human iPS cells were prepared from episomal vector (loaded gene; OCT3/4, KLF4, SOX2, L-MYC, LIN28, mouse p53DD) using PBMC (LP_167, Sample ID: 20130318) purchased from CTL (reference literature; Okita K, et al. Stem Cells. 2012 Nov. 29. doi: 10.1002/stem.1293)).
The maintenance culture of the above-mentioned reporter iPS cell lines was carried out by a conventional method (Okita K, et al. Stem Cells. 2012 Nov. 29. doi: 10.1002/stem.1293).
For differentiation induction into cardiomyocytes, the reporter iPS cell lines were treated with 0.5×TrypLE select (Life Technologies, diluted in 1/2 with 0.5 mM EDTA/PBS) for 4 to 5 minutes, and the cells were exfoliated using a cell scraper (IWAKI), and then dissociated into the single cell by pipetting. The medium was removed by centrifugation (1,000 rpm, 5 min), and the obtained cells were seeded on a bioreactor (ABLE) by 1×10^7 cells per 30 mL of the bioreactor, and then cultured in a medium prepared by adding 1% L-glutamine, transferrin 150 μg/mL, ascorbic acid 50 μg/mL (Sigma), monothioglycerol 4×10^−4 M, 10 μM Rock inhibitor (Y-27632), 2 ng/mL BMP4 (R&D) and 0.5% Matrigel (Growth Factor Reduced) to a medium after removal of solution C from StemFit AK02 (AJINOMOTO AK02, 400 mL of solution A and 100 mL of B solution, total 500 mL), at 37° C., under 5% oxygen condition (55 rpm, stirred suspension culture method) to form embryoid bodies (0 day).
Next day (1st day), 9 μL (final concentration 3 ng/mL) of 10 μg/mL activin A, 15 μL (final concentration 5 ng/mL) of 10 μg/mL bFGF and […] (final concentration 10 ng/mL) of 10 μg/mL BMP4 were added to the bioreactor, and the cells were cultured at 37° C. for additional 2 days, under 5% oxygen condition.
Then (3rd day), the obtained embryoid bodies were collected in a 50 mL centrifuge tube, and then subjected to centrifugation (200 g, 1 min). The medium was removed, and the embryoid bodies were cultured in a medium prepared by adding 1% L-glutamine, transferrin 150 μg/mL, ascorbic acid 50 μg/mL (Sigma), monothioglycerol 4×10^−4 M, 10 ng/mL VEGF, 1 μM IWP-3, 0.6 μM dorsomorphin and 5.4 μM SB431542 to a medium after removal of solution C from StemFit AK02 (AJINOMOTO AK02, 400 mL of solution A and 100 mL of B solution, total 500 mL), at 37° C. for 3 days, under 5% oxygen condition (55 rpm, stirred suspension culture method).
Then (6th day), the bioreactor was left to stand to precipitate the embryoid bodies, and 80 to 90% of the medium was removed. A medium prepared by adding 1% L-glutamine, transferrin 150 μg/mL, ascorbic acid 50 μg/mL (Sigma), monothioglycerol […] and 5 ng/mL VEGF to a medium after removal of solution C from StemFit AK02 (AJINOMOTO AK02, 400 mL of solution A and 100 mL of B solution, total 500 mL) was added to the bioreactor so that the total volume became 30 mL, and the embryoid bodies were cultured for 8 days, at 37° C., under 5% oxygen condition (55 rpm, stirred suspension culture method). During the culture, the medium was replaced with a medium under the same conditions every 2 to 3 days.
14th Day after the start of the differentiation induction, the embryoid bodies were treated with 2 mg/mL collagenase type I (Sigma) for 2 hr, and then with 0.25% trypsin/EDTA (Invitrogen) for 10 min. 50% FBS/IMDM (Thermo Fisher Science) was added thereto, and the embryoid bodies were dissociated into the single cell by pipetting, and then subjected to centrifugation (1,000 rpm, 5 minutes). […]

| SMILES | average fluorescent intensity (at 1 μM) | average fluorescent intensity (at 30 μM) |
| --- | --- | --- |
| O=C(COc1ccc(-c2nc3cc(N4Cc5cc(N6CCCCC6)ccc5C4=O)ccc3[nH]2)cc1)NC1CC1 [Example 25, N-cyclopropyl-2-(4-(5-(1-oxo-5-(piperidin-1-yl)-1,3-dihydro-2H-isoindol-2-yl)-1H-benzimidazol-2-yl)phenoxy)acetamide] | 1260 | 900 |
| CC(C)(C)OC(=O)N1CCC(c2nc3cc(N4Cc5cc(N6CCCCC6)ccc5C4=O)ccc3[nH]2)CC1 [Example 42, tert-butyl 4-(5-(1-oxo-5-(piperidin-1-yl)-1,3-dihydro-2H-isoindol-2-yl)-1H-benzimidazol-2-yl)piperidine-1-carboxylate] | 980 | 1041 |
| CN(C)C(=O)C(NC(=O)COc1ccc(-c2nc3cc(N4Cc5cc(N6CCCCC6)ccc5C4=O)ccc3[nH]2)cc1)c1ccccc1 (stereo not drawn) [Example 13, N,N-dimethyl-2-(((4-(5-(1-oxo-5-(piperidin-1-yl)-1,3-dihydro-2H-isoindol-2-yl)-1H-benzimidazol-2-yl)phenoxy)acetyl)amino)-2-phenylacetamide] | 1212 | — |
| O=C1c2ccc(N3CCCCC3)cc2CN1c1ccc2[nH]c(-c3ccc(OCc4ccccc4)cc3)nc2c1 [Example 3, 2-(2-(4-(benzyloxy)phenyl)-1H-benzimidazol-5-yl)-5-(piperidin-1-yl)isoindolin-1-one] | 933 | 1441 |
| O=C1c2ccc(N3CCOCC3)cc2CN1c1ccc2[nH]c(-c3ccccc3)nc2c1 [Example 73, 5-(morpholin-4-yl)-2-(2-phenyl-1H-benzimidazol-5-yl)isoindolin-1-one] | 1231 | 922 |
| CCCOc1ccc(-c2nc3cc(N4Cc5cc(N6CCOCC6)ccc5C4=O)ccc3[nH]2)cc1 [Example 58, 5-(morpholin-4-yl)-2-(2-(4-propoxyphenyl)-1H-benzimidazol-5-yl)isoindolin-1-one] | 994 | 819 |
| CCCNC(=O)COc1ccc(-c2nc3cc(N4Cc5cc(N6CCCCC6)ccc5C4=O)ccc3[nH]2)cc1 [Example 28, 2-(4-(5-(1-oxo-5-(piperidin-1-yl)-1,3-dihydro-2H-isoindol-2-yl)-1H-benzimidazol-2-yl)phenoxy)-N-propylacetamide] | 1540 | — |
| O=C1c2ccc(N3CCOCC3)cc2CN1c1ccc2[nH]c(-c3ccc(F)cc3)nc2c1 [Example 67, 2-(2-(4-fluorophenyl)-1H-benzimidazol-5-yl)-5-(morpholin-4-yl)isoindolin-1-one] | 1367 | 1188 |
| CCCNC(=O)COc1ccc(-c2nc3cc(N4Cc5cc(N6CCOCC6)ccc5C4=O)ccc3[nH]2)cc1 [Example 49, 2-(4-(5-(5-(morpholin-4-yl)-1-oxo-1,3-dihydro-2H-isoindol-2-yl)-1H-benzimidazol-2-yl)phenoxy)-N-propylacetannide] | 1382 | 890 |
| O=C(COc1ccc(-c2nc3cc(N4Cc5cc(N6CCCCC6)ccc5C4=O)ccc3[nH]2)cc1)Nc1ccc(F)cc1 [Example 19, N-(4-fluorophenyl)-2-(4-(5-(1-oxo-5-(piperidin-1-yl)-1,3-dihydro-2H-isoindol-2-yl)-1H-benzimidazol-2-yl)phenoxy)acetamide] | 1292 | 860 |
| O=C1c2ccc(N3CCCCC3)cc2CN1c1ccc2[nH]c(-c3ccccn3)nc2c1 [Example 47, 5-(piperidin-1-yl)-2-(2-(pyridin-2-yl)-1H-benzimidazol-5-yl)isoindolin-1-one] | 1115 | 1348 |
| O=C(COc1ccc(-c2nc3cc(N4Cc5cc(N6CCCCC6)ccc5C4=O)ccc3[nH]2)cc1)N1CCS(=O)(=O)C1 [Example 16] | 1366 | 3604 |
| O=C(O)COc1ccc(-c2nc3cc(N4Cc5cc(N6CCCCC6)ccc5C4=O)ccc3[nH]2)cc1 [Example 6, (4-(5-(l-oxo-5-(piperidin-1-yl)-1,3-dihydro-2H-isoindol-2-yl)-1H-benzimidazol-2-yl)phenoxy)acetic acid] | 974 | 987 |
| O=C(O)COc1ccc(-c2nc3cc(N4Cc5cc(N6CCOCC6)ccc5C4=O)ccc3[nH]2)cc1 [Example 51, (4-(5-(5-(morpholin-4-yl)-1-oxo-1,3-dihydro-2H-isoindol-2-yl)-1H-benzimidazol-2-yl)phenoxy)acetic acid] | 963 | 1279 |
| O=C1c2ccc(N3CCCCC3)cc2CN1c1ccc2[nH]c(C3CCCCC3)nc2c1 [Example 44, 2-(2-cyclohexyl-1H-benzimidazol-5-yl)-5-(piperidin-1-yl)isoindolin-1-one] | 1071 | 1141 |
| O=C(COc1ccc(-c2nc3cc(N4Cc5cc(N6CCOCC6)ccc5C4=O)ccc3[nH]2)cc1)NC1CCOCC1 [Example 31, 2-(4-(5-(5-(morpholin-4-yl)-1-oxo-1,3-dihydro-2H-isoindol-2-yl)-1H-benzimidazol-2-yl)phenoxy)-N-(tetrahydro-2H-pyran-4-yl)acetamide] | 736 | 888 |
| O=C1c2ccc(N3CCCCC3)cc2CN1c1ccc2[nH]c(C3CCNCC3)nc2c1 [Example 39, 5-(piperidin-1-yl)-2-(2-(piperidin-4-yl)-1H-benzimidazol-5-yl)isoindolin-1-one] | 1042 | 1026 |
| O=C1c2ccc(N3CCCCC3)cc2CN1c1ccc2[nH]c(C3CCOCC3)nc2c1 [Example 43, 5-(piperidin-1-yl)-2-(2-(tetrahydro-2H-pyran-4-yl)-1H-benzimidazol-5-yl)isoindolin-1-one] | 1087 | 1153 |
| CC1(NC(=O)COc2ccc(-c3nc4cc(N5Cc6cc(N7CCCCC7)ccc6C5=O)ccc4[nH]3)cc2)CC1 [Example 18, N-(1-methylcyclopropyl)-2-(4-(5-(1-oxo-5-(piperidin-1-yl)-1,3-dihydro-2H-isoindol-2-yl)-1H-benzimidazol-2-yl)phenoxy)acetamide] | 1272 | 1704 |
| O=C(COc1ccc(-c2nc3cc(N4Cc5cc(N6CCOCC6)ccc5C4=O)ccc3[nH]2)cc1)Nc1ccncc1 [Example 35, 2-(4-(5-(5-(morpholin-4-yl)-1-oxo-1,3-dihydro-2H-isoindol-2-yl)-1H-benzimidazol-2-yl)phenoxy)-N-(pyridin-4-yl)acetamide] | 1536 | 1204 |
| O=C1c2ccc(N3CCOCC3)cc2CN1c1ccc2[nH]c(-c3ccc(Cl)cc3)nc2c1 [Example 56, 2-(2-(4-chlorophenyl)-1H-benzimidazol-5-yl)-5-(morpholin-4-yl)isoindolin-1-one] | 1185 | 897 |
